Experimental findings from patent publication US20080234384A1, “BIARYL AND BIHETEROARYL COMPOUNDS USEFUL IN TREATING IRON DISORDERS” (XENON PHARMACEUTICALS INC., priority 2007, published 2008) are described below.

Counter-ions that a name gives are not always drawn. Bounds are passed on as bounds.

The term IC50 denotes the concentration at which inhibition is half-maximal. In general, melting point refers to the temperature, or range, at which the solid turns liquid.

The first series addresses T1, DMT1 (Homo sapiens, UniProt P49281).
T1 sequence (P49281 1-568): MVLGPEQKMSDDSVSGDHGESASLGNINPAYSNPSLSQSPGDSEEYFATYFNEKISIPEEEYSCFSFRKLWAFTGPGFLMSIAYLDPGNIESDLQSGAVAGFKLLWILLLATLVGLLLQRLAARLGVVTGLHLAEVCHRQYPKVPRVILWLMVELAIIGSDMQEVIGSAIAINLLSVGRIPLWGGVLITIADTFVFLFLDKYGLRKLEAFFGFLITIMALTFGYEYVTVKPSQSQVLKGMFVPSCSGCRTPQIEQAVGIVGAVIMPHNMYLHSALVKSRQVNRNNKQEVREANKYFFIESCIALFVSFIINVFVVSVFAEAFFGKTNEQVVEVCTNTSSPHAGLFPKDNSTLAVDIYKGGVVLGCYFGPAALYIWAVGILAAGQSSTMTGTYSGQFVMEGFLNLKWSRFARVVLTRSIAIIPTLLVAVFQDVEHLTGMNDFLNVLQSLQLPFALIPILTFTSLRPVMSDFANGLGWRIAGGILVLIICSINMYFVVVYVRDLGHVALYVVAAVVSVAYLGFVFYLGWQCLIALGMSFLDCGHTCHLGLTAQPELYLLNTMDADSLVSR
In words: DMT1 Activity Assay (In Vitro Assay). It counts as cell-based. The note with it: read-out: IC50 Activity Level. The text has this: In particular, identification of the compounds of the invention ability to modulate, preferably to inhibit, DMT1 activity, can be assessed using a variety of in vitro and in vivo assays, for measuring uptake of reduced iron (Fe^2+). One such protocol involves the screening of chemical agents for ability to modulate the activity of DMT1 thereby identifying it as a modulating agent. The in vitro activity of DMT1 can be measured in cell based assays by either directly measuring iron flux (using a radioactively labelled iron ^55Fe) or by measuring the fluorescence of a cell permeable iron fluorophore such as calcein. Stable cell lines overexpressing DMT1 are exposed to ^55Fe or loaded with calcein and then compound is applied. […] Alternatively, in another format electrophysiological techniques can be used to measure the current or iron or other metals traversing the cell membrane with DMT1 in a Xenopus oocyte or other cell based system (Gunshin et al., Nature, 1997, 31; 388(6641):482-8).
This example discloses various in vitro assay for testing and profiling test agents against DMT1 stably expressed in cells of either an endogenous or recombinant origin. These assays can use stable cell lines overexpressing DMT1 or intestinal cells and intestinal tissue expressing endogenous DMT1. DMT1 function could also be assessed in other cell types that express DMT1. Of greatest relevance would be the erythrocytes (e.g. K562 cells) or hepatocytes (e.g. […]).
DMT1 function can be assessed in a number of ways, including monitoring fluorescence changes of an iron fluorophore (e.g. calcein), monitoring uptake of radiolabelled iron (55Fe or ^59Fe) (Picard et al., J. Biol. Chem., 2000, 275(46):35738-45 and Wetli et al., Chem. Biol. 2006 September; 13(9):965-72), or by assessing the current or transport of iron and other metals into the cells or tissues using standard electrophysiological techniques (Gunshin et al., Nature, 1997, 388(6641):482-8.).
Variations of these assays involve alterations of incubation times, the iron status of the cells and tissues (which may be modulated by chemical chelators or by harvesting from iron deficient animals), the metal cation detected and the pH of the reaction can generally be made by conventional techniques known to those skilled in the art.
Turning to `N=C(N)SCc1ccccc1Oc1ccc(Cl)cc1CSC(=N)N` [Example 2.16, 2-[2-({[amino(imino)methyl]thio}methyl)-4-chlorophenoxy]benzyl imidothiocarbamate dihydrobromide], the concentration for half-maximal inhibition (IC50) was not below 1 µM.

As to `N=C(N)SCc1ccccc1Sc1cc(F)c(F)cc1CSC(=N)N` [Example 1.9, 2-[2-(2-carbamimidoylsulfanylmethyl-4,5-difluorophenylsulfanyl)-benzyl]isothiourea dihydrobromide], the IC50 is 0.1 to 1 µM.

`N#Cc1ccc(Sc2ccc(Cl)cc2CSC(=N)N)c(CSC(=N)N)c1` [Example 2.8, 2-{[2-({[amino(imino)methyl]thio}methyl)-4-chlorophenyl]thio}-5-cyanobenzyl imidothiocarbamate dihydrobromide]: the half-inhibitory concentration (IC50) was not below 1 µM.

As to `Cc1cccc(CSC(=N)N)c1Sc1ccccc1CSC(=N)N` [Example 1.8, 2-[2-(2-carbamimidoylsulfanylmethyl-6-methylphenylsulfanyl)-benzyl]isothiourea dihydrobromide], the concentration for half-maximal inhibition (IC50) was not below 1 µM.

Take `N=C(N)SCc1ccccc1Oc1cc(Cl)ccc1CSC(=N)N` [Example 2.18, 2-[2-({[amino(imino)methyl]thio}methyl)-5-chlorophenoxy]benzyl imidothiocarbamate dihydrobromide]: the half-maximal inhibitory concentration (IC50) is not below 1 µM.

`N=C(N)SCc1cc(F)ccc1Sc1ccc([N+](=O)[O-])cc1CSC(=N)N` [Example 2.1, 2-{[2-({[amino(imino)methyl]thio}methyl)-4-fluorophenyl]thio}-5-nitrobenzyl imidothiocarbamate dihydrobromide]: the IC50 fell in the range of 0.01 to 0.1 µM.

On to `N=C(N)SCc1cc(Cl)ccc1Sc1ccc(Cl)cc1CSC(=N)N` [Example 1.22, 2-[2-(2-carbamimidoylsulfanylmethyl-4-chlorophenylsulfanyl)-5-chlorobenzyl]isothiourea dihydrobromide], for which the half-maximal inhibitory concentration (IC50) was not below 1 µM.

As for `N=C(N)SCc1cc(F)ccc1Sc1cc(F)c(F)cc1CSC(=N)N` [Example 1.16, 2-[2-(2-carbamimidoylsulfanylmethyl-4,5-difluorophenylsulfanyl)-5-fluorobenzyl]isothiourea dihydrobromide], the IC50 lay in the range of 0.1 to 1 µM.

Regarding `N=C(N)SCc1ccccc1S(=O)(=O)c1ccccc1CSC(=N)N` [Example 2.3, 2-[2-(2-carbamimidoylsulfanylmethylphenylsulfonyl)benzyl]-isothiourea dihydrobromide], the concentration for half-maximal inhibition (IC50) is not below 1 µM.

`N=C(N)SCc1ccccc1Sc1ccc(Cl)cc1CSC(=N)N` [Example 1.26, 2-[2-(2-carbamimidoylsulfanylmethylphenylsulfanyl)-5-chlorobenzyl]-isothiourea dihydrobromide]: the half-inhibitory concentration (IC50) fell in the range of 0.1 to 1 µM.

In the case of `N=C(N)SCc1cc(F)ccc1Sc1cc(F)ccc1CSC(=N)N` [Example 1.15, 2-[2-(2-carbamimidoylsulfanylmethyl-5-fluorophenylsulfanyl)-5-fluorobenzyl]isothiourea dihydrobromide], the half-maximal inhibitory concentration (IC50) fell in the range of 0.1 to 1 µM.

`N=C(N)Cc1ccccc1Sc1ccccc1CC(=N)N` [Example 6.1, 2-(6-(amidinomethyl)phenyl)thio-1-(amidinomethyl)benzene]: the half-maximal inhibitory concentration (IC50) was not below 1 µM.

Tested on in another series: not given
Assay: not given
Conditions: not given
`N=C(N)SCc1ccccc1C(=O)c1cc(Cl)ccc1CSC(=N)N` (as salt: hydrobromid) [Example 2.28, 2-(6-(amidinothiomethyl)phenyl)carbonyl-1-(amidinothiomethyl)-4-chlorobenzene dihydrobromide dihydrobromide]: the melting point was more than 250 °C.

`N=C(N)SCc1cc([N+](=O)[O-])ccc1Oc1cc(Cl)ccc1CSC(=N)N` (as salt: hydrobromid) [Example 2.19, 2-[2-({[amino(imino)methyl]thio}methyl)-5-chlorophenoxy]-5-nitrobenzyl imidothiocarbamate dihydrobromide] returned a melting point of more than 220 °C.

In turn, `COC(=O)c1cccc(CSC(=N)N)c1-c1c(CSC(=N)N)cccc1C(=O)OC` (as salt: hydrobromid) [Example 2.24, dimethyl 6,6′-bis(carbamimidoylthiomethyl)biphenyl-2,2′-dicarboxylate dihydrobromide] yielded a melting point of 222 to 225 °C.

The molecule `N=C(N)SCc1cc(F)ccc1Oc1cccc(Cl)c1CSC(=N)N` (as salt: hydrobromid) [Example 2.10, 2-[2-(2-carbamimidoylsulfanylmethyl-3-chlorophenoxy)-5-fluorobenzyl]isothiourea dihydrobromide] displayed a melting point of 204 to 206 °C.

In the case of `N=C(N)SCc1ccccc1Oc1cc(Cl)ccc1CSC(=N)N` (as salt: hydrobromid) [Example 2.18, 2-[2-({[amino(imino)methyl]thio}methyl)-5-chlorophenoxy]benzyl imidothiocarbamate dihydrobromide], the melting point was more than 220 °C.

With `N=C(N)SCc1ccccc1Oc1ccc(F)cc1CSC(=N)N` (as salt: hydrobromid) [Example 2.21, 2-[2-({[amino(imino)methyl]thio}methyl)-4-fluorophenoxy]benzyl imidothiocarbamate dihydrobromide], the melting point is more than 220 °C.

`N=C(N)SCc1ccc(Cl)cc1Oc1cc([N+](=O)[O-])ccc1CSC(=N)N` (as salt: hydrobromid) [Example 2.9, 2-[2-({[amino(imino)methyl]thio}methyl)-5-chlorophenoxy]-4-nitrobenzyl imidothiocarbamate dihydrobromide] displayed a melting point of more than 220 °C.

Molecule `N=C(N)SCc1cccc(CSC(=N)N)c1-c1c(CSC(=N)N)cccc1CSC(=N)N` (as salt: hydrobromid) [Example 2.23, biphenyl-2,2′-6,6′-tetrayltetrakis(methylene)tetracarbamimidothioate tetrahydrobromide] returned a melting point of 233 to 235 °C.

Molecule `NC(N)=NC(=O)c1ccccc1Sc1ccccc1C(=O)N=C(N)N` [Example 4, 2,2′-thiobis(N-(diaminomethylene)benzamide)] registered a melting point of more than 220 °C.

Take `N=C(N)SCc1cc(F)ccc1Oc1ccc(Cl)cc1CSC(=N)N` (as salt: hydrobromid) [Example 2.11, 2-[2-(2-carbamimidoylsulfanylmethyl-4-chlorophenoxy)-5-fluorobenzyl]isothiourea dihydrobromide]: the melting point was more than 230 °C.

In the case of `N=C(N)SCc1ccccc1C(=O)c1ccc(Cl)cc1CSC(=N)N` (as salt: hydrobromid) [Example 2.29, 2-(6-(amidinothiomethyl)phenyl)carbonyl-1-(amidinothiomethyl)-5-chlorobenzene dihydrobromide], the melting point was more than 250 °C.

In turn, `N=C(N)SCc1cc(F)ccc1Oc1ccc([N+](=O)[O-])cc1CSC(=N)N` (as salt: hydrobromid) [Example 2.14, 2-[2-({[amino(imino)methyl]thio}methyl)-4-fluorophenoxy]-5-nitrobenzyl imidothiocarbamate dihydrobromide] came in with a melting point of more than 220 °C.

For the molecule `N=C(N)SCc1cc(Cl)ccc1Oc1ccc([N+](=O)[O-])cc1CSC(=N)N` (as salt: hydrobromid) [Example 2.20, 2-[2-({[amino(imino)methyl]thio}methyl)-4-chlorophenoxy]-5-nitrobenzyl imidothiocarbamate dihydrobromide], the melting point is more than 220 °C.

Take `N=C(N)SCc1ccccc1Oc1cccc(Cl)c1CSC(=N)N` (as salt: hydrobromid) [Example 2.17, 2-[2-({[amino(imino)methyl]thio}methyl)-3-chlorophenoxy]benzyl imidothiocarbamate dihydrobromide]: the melting point was in the range of 150 to 152 °C.

Consider `N=C(N)SCc1ccccc1C(=O)c1ccc(F)cc1CSC(=N)N` (as salt: hydrobromid) [Example 2.26, 2-(6-(amidinothiomethyl)phenyl)carbonyl-1-(amidinothiomethyl)-5-fluorobenzene dihydrobromide], for which the melting point is more than 250 °C.
